By melting point is commonly meant the temperature of the solid-liquid transition.

SMILES strings stand for the structures.

`COc1ccc(CNc2ncccc2C(=O)Nc2cccc(C(F)(F)F)c2)cn1.Cl.Cl` had a melting point of 185 °C.

`O=C(Nc1ccc(C(F)(F)F)c(C(F)(F)F)c1)c1cccnc1NCc1ccncc1` [Example 6, 2-[(4-Pyridyl)methylamino]-N-[3,4-bis(trifluoromethyl)phenyl]-3-pyridinecarboxamide] had a melting point of 194 to 196 °C.

`O=C(Nc1cc(F)cc(C(F)(F)F)c1)c1cccnc1NCc1ccncc1` [Example 7, 2-[(4-Pyridyl)methylamino]-N-[3-fluoro-5-(trifluoromethyl)phenyl]-3-pyridinecarboxamide] came in with a melting point of 196 °C.

On to `CC(C)(C)[C@H]1CC[C@H](NC(=O)c2cccnc2NCc2ccncc2)CC1` [Example 8, 2-[(4-Pyridyl)methylamino]-N-(trans-4-tert-butyl-cyclohexyl)-3-pyridinecarboxamide], for which the melting point is 165 to 167 °C.

Take `CCCc1ccc(NC(=O)c2cccnc2NCc2ccncc2)cc1` [Example 9, 2-[(4-Pyridyl)methylamino]-N-[4-(n-propyl)phenyl]-3-pyridinecarboxamide]: the melting point was 147 to 149 °C.

`CCCCc1ccc(NC(=O)c2cccnc2NCc2ccncc2)cc1` [Example 10, 2-[(4-Pyridyl)methylamino]-N-[4-(n-butyl)phenyl)3-pyridinecarboxamide] had a melting point of 107 to 108 °C.

`CCCCCc1ccc(NC(=O)c2cccnc2NCc2ccncc2)cc1` [Example 11, 2-[(4-Pyridyl)methylamino]-N-[4-(n-pentyl)phenyl]-3-pyridinecarboxamide] displayed a melting point of 106 to 107 °C.

In turn, `CC#Cc1ccc(NC(=O)c2cccnc2NCc2ccncc2)cc1` [Example 12, 2-[(4-Pyridyl)methylamino]-N-[4-(1-propynyl)phenyl]-3-pyridinecarboxamide] registered a melting point of 216 to 221 °C.

As for `O=C(Nc1ccc2[nH]ncc2c1)c1cccnc1NCc1ccncc1` [Example 13, 2-[(4-Pyridyl)methylamino]-N-(5-indazolyl)-3-pyridinecarboxamide], the melting point fell in the range of 225 to 230 °C.

`O=C(Nc1cc2ccccc2cn1)c1cccnc1NCc1ccncc1` [Example 14, 2-[(4-Pyridyl)methylamino]-N-(3-isoquinolinyl)-3-pyridinecarboxamide]: the melting point lay within 191 to 195 °C.

As for `O=C(Nc1cccc(C(F)(F)F)c1F)c1cccnc1NCc1ccncc1` [Example 19, 2-[(4-Pyridyl)methylamino]-N-[2-fluoro-3-(trifluoromethyl)phenyl]-3-pyridinecarboxamide], the melting point is 137 to 140 °C.

In turn, `O=C(Nc1ccc(Br)c(C(F)(F)F)c1)c1cccnc1NCc1ccncc1` [Example 20, 2-[(4-Pyridyl)methylamino]-N-[4-bromo-3-(trifluoromethyl)phenyl]-3-pyridinecarboxamide] registered a melting point of 164 to 165 °C.

In turn, `Cc1c(NC(=O)c2cccnc2NCc2ccncc2)cccc1C(F)(F)F` [Example 21, 2-[(4-Pyridyl)methylamino]-N-[2-methyl-3-(trifluoromethyl)phenyl]-3-pyridinecarboxamide] came in with a melting point of 146 to 147 °C.

Compound `Cc1ccc(C(F)(F)F)cc1NC(=O)c1cccnc1NCc1ccncc1` [Example 22, 2-[(4-Pyridyl)methylamino]-N-[2-methyl-5-(trifluoromethyl)phenyl]-3-pyridinecarboxamide] gave a melting point of 155 to 156 °C.

`CC(C)(C)[C@H]1CC[C@@H](NC(=O)c2cccnc2NCc2ccncc2)CC1` [Example 23, 2-[(4-Pyridyl)methylamino]-N-(cis-4-tert-butyl-cyclohexyl)-3-pyridinecarboxamide]: the melting point fell in the range of 103 to 106 °C.

In the case of `COc1ccc(CNc2ncccc2C(=O)Nc2ccc(Br)c(C(F)(F)F)c2)cn1` [Example 24, 2-[(6-Methoxypyrid-3-yl)methylamino]-N-[4-bromo-3-(trifluoromethyl)phenyl]-3-pyridinecarboxamide], the melting point fell in the range of 123 to 125 °C.

For the compound `CC#Cc1ccc(NC(=O)c2cccnc2NCc2ccncc2)cc1C(F)(F)F` [Example 31, 2-[(4-Pyridyl)methylamino]-N-[4-propynyl-3-(trifluoromethyl)phenyl]3-pyridinecarboxamide], the melting point was 213 to 217 °C.

In the case of `CC#Cc1ccc(NC(=O)c2cccnc2NCc2ccc(=O)[nH]c2)cc1C(F)(F)F` [Example 32, 2-[(Pyridin-2(1H)-on-5-yl)methyl]amino-N-[4-propynyl-3-(trifluoromethyl)phenyl]-3-pyridinecarboxamide], the melting point was in the range of 211 to 218 °C.

`O=C(Nc1cccc(C(F)(F)F)c1)c1cccnc1NCc1cccc(O)c1` [Example 34, 2-[(3-Hydroxyphenyl)methyl]amino-N-[3-(trifluoromethyl)phenyl]-3-pyridinecarboxamide] came in with a melting point of 143 to 146 °C.

For the compound `O=C(Nc1cccc(C(F)(F)F)c1F)c1cccnc1NCc1ccc(=O)[nH]c1` [Example 36, 2-[(Pyridin-2(1H)-on-5-yl)methyl]amino-N-[2-fluoro-3-(trifluoromethyl)phenyl]-3-pyridinecarboxamide], the melting point lay within 219 to 222 °C.

In the case of `CCCc1ccc(NC(=O)c2cccnc2NCc2ccc(=O)[nH]c2)cc1C(F)(F)F` [Example 38, 2-[(Pyridin-2(1H)-on-5-yl)methyl]amino-N-[4-propyl-3-(trifluoromethyl)phenyl]-3-pyridinecarboxamide], the melting point is 220 to 224 °C.

Compound `CCCc1ccc(NC(=O)c2cccnc2NCc2ccncc2)cc1C(F)(F)F` [Example 40, 2-[(4-Pyridyl)methyl]amino-N-[4-(n-propyl)-3-(trifluoromethyl)phenyl]-3-pyridinecarboxamide] showed a melting point of 147 to 149 °C.

The record behind these values is patent publication US6624174B2, “2-amino-nicotinamide derivatives and their use as VEGF-receptor tyrosine kinase inhibitors” (Novartis AG, priority 2000, dated 2003).
